This is an account of results in publication PMC9663686, “Proline, hydroxyproline, and pyrrolidone carboxylic acid derivatives as highly efficient but reversible transdermal permeation enhancers” (Scientific Reports, 2022).

For one data set, the system named is rat skin. The conditions noted are these: 5% concentration (154 mM), topical; cited from earlier work.
Data set [1] is described as follows: Skin viability after topical enhancer application (TTC reduction test). The conditions noted are these: human, freshly excised full thickness human skin, 1% in 60% PG for 24 or 48 h, decrease not significant, read-out: viability of treated skin relative to untreated skin. Here is the method:
Freshly excised full thickness human skin was incubated in Dulbecco’s modified Eagle’s medium (DMEM, Lonza, Verviers, Belgium) supplemented with 10% heat-inactivated fetal bovine serum (Merck, Darmstadt, Germany), and 1% penicillin/streptomycin + 1% amphotericin B solution (Lonza, Verviers, Belgium) at 37 °C in a humidified atmosphere of 5% CO2. Skin fragments were treated with 1% enhancer in 60% PG, 20 µl/cm^2, 60% PG alone or left untreated for 24 or 48 h. Then the skin was washed rinsed with distilled water and gently blotted dry. Skin viability was evaluated using the 2,3,5-triphenyltetrazolium chloride (TTC) reduction test[57]. Punch biopsies of 5 mm diameter were incubated in 1 ml of 1.5% TTC and 3% sodium succinate in phosphate buffered saline at pH 7.4 at 37 °C under nitrogen in the dark. After 1 h, the skin samples were dried and the dark red formazan derivative produced by the mitochondrial enzymes was extracted with 1 ml of 2-methoxyethanol for 12 h. Absorbance was measured at 490 nm using Tecan Infinite 200 M plate reader (Tecan, Grödig, Austria) and corrected using skin samples devitalized by boiling as a negative control. The viability of skin exposed to the different preparations was expressed as a percentage of untreated control skin.

For the molecule `CCCCCCCCCCCCOC(=O)C1CCCN1C(C)=O` (stereo not drawn) [Pro2, N-acetyl proline dodecyl ester], the “visible changes in rat skin after topical application” value in the data set on rat skin was “did not cause any visible changes in rat skin”. As to `CCCCCCCCCCCCOC(=O)C1CCCN1C(=O)CC` (stereo not drawn) [Pro3], in data set [1], the viability at 1 % was no less than 92%.

Regarding `CCCCCCCCCCCCOC(=O)C1CCCN1C(=O)CCC` (stereo not drawn) [Pro4], the viability at 1 % in data set [1] is no less than 92%.
